What was measured:
[1] = system: MDA-MB-231 xenografts; test: MDA-MB-231 xenograft growth in nude mice; format: in vivo, human tumor in nude mice; settings: 250 mg/kg gavage, 5 days/week; control 979.0 ± 154; p = 0.01; in mm³ (unit assumed)
Procedure: MDA-MB-231 (human mammary cancer) cells were obtained from American Type Culture Collection (Rockville, Md.) and maintained in the recommended growth media. Twenty nude mice were each inoculated subcutaneously with MDA-MB-231 cells (10^6 cells/100 μL). To one group of ten mice, DIME was administered by gavage (250 mg/kg, 10 mL/kg in corn oil) once per day, 5 days per week, for a total of 32 days. The other (control) group of ten mice was given administered vehicle only according to the same dosing schedule. Tumors were measured twice weekly using a Vernier caliper, and the mean tumor volume was determined at each time point. Comparisons between groups were made using an unpaired, two-tailed t-test and the results were analyzed using analysis of variance.
Tumorigenicity of E-ras 20 Cells in athymic nude mice was assayed as described previously. Bauer et al., 1996, "Modification of growth related enzymatic pathways and apparent loss of tumorigenicity of a ras-transformed bovine endothelial cell line by treatment with 5-iodo-6-amino-1,2-benzopyrone (INH2 BP)" Intl. J. Oncol. 8:239-252. The in vivo antitumorigenic action of DIME was assayed on athymic mice inoculated with 10^6 MDA-MB-231 cells, as in the tumorgenicity assay. […]

[2] = system: HL-60 (promyelocytic leukemia); test: Cytocidal action/growth inhibition, HL-60; format: cell-based; settings: Homo sapiens, 72 h
Procedure: Seven human cancer cell lines were obtained from the American Tissue Culture Collection (Rockville, Md.) and maintained in the recommended growth media. Cells were seeded into wells (2 cm^2) at a density of 2×10^4 cells/cm^2. Various concentrations of Compounds 1-13 were added to the media at the time of seeding.
The cultures were incubated for 72 hours at 37° C. (5% CO2 atmosphere). Following incubation, cells were detached with trypsin and counted in a hemocytometer.
I100 designates the concentration at which no viable cells remained; I50 the concentration at which 50% viable cells remained, as compared to a control.
E-ras 20 cells were cultured as reported, Bauer et al., 1996, "Modification of growth related enzymatic pathways and apparent loss of tumorigenicity of a ras-transformed bovine endothelial cell line by treatment with 5-iodo-6-amino-1,2-benzopyrone (INH2 BP)" Intl. J. Oncol. 8:239-252; HT-144 (melanoma), DU-145 (prostatic cancer), HeLa (cervical cancer), HL 60 (promyelocytic leukemia), MDA-MB-231 (mammary cancer), SK-Br-3 (mammary cancer), T47D (ductal mammary cancer), A559 (lung cancer) were obtained from American Type Culture Collection (Rockville, Md.) and cultured in prescribed media. […]

[3] = system: MDA-MB-231 cells; test: Time-lapse videomicroscopy of mitosis; format: cell-based, human
Procedure: Cells in sealed T-25 tissue culture flasks were placed into a temperature-controlled incubation chamber built to enclose an inverted phase-contrast microscope. The chamber was shielded from ambient room light. Every 5 min, the microscope light was switched on for 12s, during which time an image was captured by an imaging system obtained from Compix, Inc. (Mars, Pa., USA). Image sequences were analyzed with software from the same company.
^a Mitoses were monitored by timelapse videomicroscopy during
continuous exposure of cells to DIME;
^b Fusion of daughter cells usually occurred within minutes of
cytokinesis and involved 2-5 daughter cells.

[4] = system: CV-1-Transformed cells; test: cells; format: in vitro ADME; settings: 24 hours, read-out: Extracellular DIME (concentration that causes 100% growth inhibition)
Procedure: (§1) Monolayer cultures in 9.6 cm^2 wells (3 ml medium) were exposed to [^14 C]-DIME (10.55 mCi/mmol) for 24 hours, then washed 7 times with 1 ml medium containing unlabeled DIME. The cells were dissolved in 1 ml of 4% Na2 CO3 and 0.2 M NaOH and radioactivity measured by scintillation counting. Cell volume was determined by hematocrit and cell counting from parallel wells treated with unlabeled DIME.
(§2) A striking property of DIME is its apparent selectivity for tumors in vivo. We performed drug metabolism and cellular DIME uptake tests to further characterize this property. Incubation of cells in culture with [^14 DIME, under conditions described previously, Bauer et al., 1996, "Modification of growth related enzymatic pathways and apparent loss of tumorigenicity of a ras-transformed bovine endothelial cell line by treatment with 5-iodo-6-amino-1,2-benzopyrone (INH2 BP)" Intl. J. Oncol. […] As shown in Table 9 the tumorigenic transformed cells in general took up DIME more rapidly than nontransformed cells (CV-1) or cells that were less sensitive to killing-by DIME (e.g. E-ras 20). […] On the other hand homogenates of organs of normal mice actively metabolize (de-esterify) DIME as illustrated in Table 10.

[5] = system: MDA-MB-231 cells; test: cells; format: in vitro ADME; settings: Homo sapiens; MDA-MB-231, 24 hours; read-out: Extracellular DIME (concentration that causes 100% growth inhibition)
Procedure: as §1, §2

[6] = system: CV-1 cells; test: cells; format: in vitro ADME; settings: Cercopithecidae; CV-1, 24 hours; read-out: Extracellular DIME (concentration that causes 100% growth inhibition)
Procedure: as §1, §2

[7] = system: protein phosphatase 2A (E-ras 20 cell nuclear extract); test: Phosphatase activity, E-ras 20 cell nuclear extract; format: cell-based, bovine
Procedure: Compounds 1-13 were tested for protein phosphatase 2A activation in malignant tumor cell cultures in vitro according to the protocol described in Bauer et al., 1996, "Modification of Growth Related Enzymatic Pathways and Apparent Loss of Tumorigenicity of a Ras-Transformed Bovine Endothelial Cell Line by Treatment with 5-Iodo-6-Amino-1,2-Benzopyrone (INH2 BP)," International J. of Oncology 8:239-252. All other compounds were ineffective.

[8] = system: A-549 cells; test: DIME action on A-549 cells with esterase inhibitor BNPP; format: cell-based, human; settings: with bis[p-nitrophenyl] phosphate

SMILES: COC(=O)c1cc(I)c(Oc2ccc(OC)cc2)c(I)c1 [Compound 1, Methyl 3,5-diiodo-4-(4'-methoxyphenoxy)benzoate]
- Tumor Volume Day 28 ± SEM [1]: 430 ± 85.6
- IC50 ([2]; Table 4, read-out: I50): 600 nM
- IC100 ([2]; Table 4, read-out: I100 (no viable cells remained)): 3 µM
- increase of average time spent in mitosis ([3]; 1 μM): more than 20 fold
- mitoses yielding daughter cells which fused (share) ([3]; 1 μM): Twenty percent
- rate of entry into mitosis / traversal of interphase ([3]; 1 μM): did not affect the rate at which the cells traversed interphase
- No. of mitosis followed by fusion of daughter cells ([3]; 1.0 μM, 35 mitoses monitored, control 0 of 32): 7
- delay in mitosis ([3]; 1 μM, control approximately 0.5 hr): 13 h
- daughter cells in irregular division (FIG. 12) ([3]; 1 μM, control exactly 2): 6 daughter cells
- IC100 [4]: 2 µM
- IC100 [5]: 2 µM
- IC100 [6]: 2 µM
- Phosphatase Activity ([7]; 50 μM DIME, untreated 29 ± 5): 44 ± 7 fmol Pi/mg protein × min.
- activation of protein phosphatase 2A, fold ([7]; 50 μM, E-ras transformed cells): at least two-fold
- cell killing with esterase inhibition [8]: much more effective cell killing

From patent US6017958A, “Method of treating malignant tumors with thyroxine analogues having no significant hormonal activity” (Octamer, Inc., priority 1997, dated 2000)
